In assay [1] the target is T1, rat recombinant ETB receptor (CHO cells) (Rattus norvegicus, UniProt P21451).
T1 construct: expressed in transfected cells; host or cells: CHO cells
T1 sequence (P21451 27-442): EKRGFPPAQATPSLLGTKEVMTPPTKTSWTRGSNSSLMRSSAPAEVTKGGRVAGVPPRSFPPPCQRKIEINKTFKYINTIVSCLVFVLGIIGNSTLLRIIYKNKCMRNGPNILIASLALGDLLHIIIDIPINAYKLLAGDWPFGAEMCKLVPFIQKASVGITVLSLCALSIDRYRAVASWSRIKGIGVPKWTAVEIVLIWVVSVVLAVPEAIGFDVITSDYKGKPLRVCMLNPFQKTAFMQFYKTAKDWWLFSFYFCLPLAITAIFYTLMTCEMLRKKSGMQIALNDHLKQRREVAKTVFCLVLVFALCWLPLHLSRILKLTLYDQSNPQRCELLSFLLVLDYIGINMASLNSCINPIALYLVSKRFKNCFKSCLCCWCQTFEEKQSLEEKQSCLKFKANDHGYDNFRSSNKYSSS
Put plainly: Inhibition of ET-1 stimulated arachidonic acid release (AAR-B). Conditions: ET-1 0.3 nM. The class given is cell-based. As to the method: In Vitro Inhibition of ET-1 Stimulated Arachidonic Acid Release in Cultured Rabbit Vascular Smooth Muscle Cells (AAR-A) or CHO Cells Expressing Rat Recombinant ETB Receptor (AAR-B) by Compounds of Formula I
Antagonist activity is measured by the ability of added compounds to reduce endothelin-stimulated arachidonic acid release in cultured vascular smooth muscle cells as arachidonic acid release (AAR). [^3 H] Arachidonic Acid Loading Media (LM) is DME/F12+0.5% fetal calf serum (FCS)×0.25 mCi/mL [^3 H] arachidonic acid (Amersham). Confluent monolayers of cultured rabbit renal artery vascular smooth muscle cells (AAR-A) or CHO cells expressing rat recombinant ETB receptor (AAR-B) were incubated in 0.5 mL of the LM over 18 hours, at 37° C., in 5% CO2. The LM was aspirated and the cells were washed once with the assay buffer (Hank's balanced salt solution [BSS]+10 mM HEPES+fatty acid-free BSA (1 mg/mL)), and incubated for 5 minutes with 1 mL of the prewarmed assay buffer. This solution was aspirated, followed by an additional 1 mL of prewarmed assay buffer, and further incubated for another 5 minutes. A final 5-minute incubation was carried out in a similar manner. The same procedure was repeated with the inclusion of 10 μL of the test compound (1 nM to 1 μM) and 10 μL ET-1 (0.3 nM) and the incubation was extended for 30 minutes. This solution was then collected, […] of scintillation cocktail was added, and the amount of [^3 H] arachidonic acid was determined in a liquid scintillation counter.

Assay [2] has as its system endothelin receptor (ETA), rabbit renal artery vascular smooth muscle cells. Put plainly: Endothelin Receptor Binding Assay-A (ERBA-A), intact cell binding of [125I]-ET-1. Conditions: [125I]-ET-1 25 pM.

Peptide text beside a SMILES is read from it.

Turning to `CC[C@H](C)[C@H](NC(=O)[C@H](CC(=O)O)NC(=O)[C@H](CC(C)C)NC(=O)[C@H](NC(C)=O)C1c2ccccc2CCc2ccccc21)C(=O)N[C@H](C(=O)N[C@@H](Cc1c[nH]c2ccccc12)C(=O)O)[C@@H](C)CC` [Example 1, Ac-D-Bhg-Leu-Asp-Ile-Ile-Trp] (HELM PEPTIDE1{[ac].[O=C([C@H](N[*:1])C1c2ccccc2CCc2ccccc21)[*:2]].L.D.I.I.W}$$$$V2.0), the IC50 in assay [1] amounted to 20 nM.
As for `CC[C@H](C)[C@H](NC(=O)[C@H](CC(=O)O)NC(=O)[C@H](CC(C)C)NC(=O)[C@H](NC(C)=O)C1c2ccccc2CCc2ccccc21)C(=O)N(C)[C@H](C(=O)N[C@@H](Cc1c[nH]c2ccccc12)C(=O)O)[C@@H](C)CC` [Example 19, Ac-D-Bhg-Leu-Asp-Ile-N-MeIle-Trp] (HELM PEPTIDE1{[ac].[O=C([C@H](N[*:1])C1c2ccccc2CCc2ccccc21)[*:2]].L.D.I.[meI].W}$$$$V2.0), the IC50 in assay [2] worked out at 0.5 nM.

For orientation: IC50 means the point on the concentration scale where inhibition reaches its midpoint.

Values taken from patent US5550110A, “Endothelin Antagonists II” (Warner-Lambert Company, priority 1994, dated 1996).
